# Experiments:
# [1] = Solubility of the compound; format: physicochemical
# [2] = AUC (0 to 8 hrs) in Sprague-Dawley rat at 2 mg/kg, iv or 5 mg/kg, po; format: ADME, organism-based; settings: plasma
# [3] = Volume of distribution at steady state in Sprague-Dawley rat at 2 mg/kg, iv or 5 mg/kg, po; format: ADME, organism-based; settings: in vivo, read-out: Vdss
# [4] = Oral bioavailability in Sprague-Dawley rat at 5 mg/kg; format: ADME, organism-based; settings: in vivo
Structure (SMILES),solubility [1],other results
COCCNCc1ccc(-c2cc(-c3cccc(C(=O)NC(C)C)c3)n[nH]2)cc1,910 µM,–
CC(C)NC(=O)c1cccc(-c2cc(-c3ccc(CNC4CC4)cc3)[nH]n2)c1,220 µM,–
CC(C)NC(=O)c1cccc(-c2cc(-c3ccc(N4CCN(C)CC4)c(-c4ccccc4)c3)[nH]n2)c1,< 10 µM,–
CC(C)NC(=O)c1cccc(-c2cc(-c3ccc(N4CCN(C)CC4)c(-c4ccncc4)c3)[nH]n2)c1,< 10 µM,–
CC(C)NCc1ccc(-c2cc(-c3cccc(C(=O)NC(C)C)c3)[nH]n2)cc1,> 970 µM,–
CC(C)NC(=O)c1cccc(-c2cc(-c3ccc(CNCC(F)(F)F)cc3)[nH]n2)c1,< 10 µM,–
CC(C)NCc1ccc(-c2cc(-c3cccc(C(=O)N[C@H](C)C#N)c3)[nH]n2)cc1,> 990 µM,–
CC(C)NCc1ccc(-c2cc(-c3cccc(C(=O)N[C@H](C)C#N)c3)no2)cc1,> 870 µM,–
CC(C)NC(=O)c1cccc(-c2cc(-c3ccc(CNC4CCOCC4)cc3)on2)c1,140 µM,–
N#CCNC(=O)c1cccc(-c2cc(-c3ccc(CNC4CCOCC4)cc3)on2)c1,170 µM,–
CC(C)(C#N)NC(=O)c1cccc(-c2cc(-c3ccc(CNC4CCOCC4)cc3)on2)c1,70 µM,–
C[C@H](C#N)NC(=O)c1cccc(-c2cc(-c3ccc(CNC4CCOCC4)cc3)on2)c1,240 µM,AUC(0-t) [2]: 0.84 µM·h; Vd [3]: 6 L/kg; bioavailability [4]: 38%
C[C@@H](C#N)NC(=O)c1cccc(-c2cc(-c3ccc(CNC4CCOCC4)cc3)on2)c1,110 µM,–

# Second part, led by results:
solubility [1],Structure (SMILES),other results
330 µM,CCCNC(=O)c1cccc(-c2cc(-c3ccc(N4CCN(C)CC4)cc3)[nH]n2)c1,–
270 µM,CC(C)NC(=O)c1cccc(-c2cc(-c3ccc(N4CCN(C)CC4)cc3)[nH]n2)c1,–
40 µM,CC(C)NC(=O)c1cccc(-c2cc(-c3ccc(N4CCN(C)CC4)c(Br)c3)[nH]n2)c1,–
50 µM,CN1CCN(c2ccc(-c3cc(-c4cccc(C(=O)NCC#N)c4)n[nH]3)cc2)CC1,–
< 10 µM,CN1CCN(c2ccc(-c3cc(-c4cccc(C(=O)NCC#N)c4)n[nH]3)cc2Br)CC1,–
650 µM,CN1CCN(c2ccc(-c3cc(-c4cccc(C(=O)NCCC#N)c4)n[nH]3)cc2)CC1,–
760 µM,COCCNC(=O)c1cccc(-c2cc(-c3ccc(N4CCN(C)CC4)cc3)[nH]n2)c1,–
170 µM,CN1CCN(c2ccc(-c3cc(-c4cccc(C(=O)NCCO)c4)n[nH]3)cc2)CC1,–
> 960 µM,CN(C)CCNC(=O)c1cccc(-c2cc(-c3ccc(N4CCN(C)CC4)cc3)[nH]n2)c1,–
170 µM,CN1CCN(c2ccc(-c3cc(-c4cccc(C(=O)NCC(F)(F)F)c4)n[nH]3)cc2)CC1,–
< 10 µM,CN1CCN(c2ccc(-c3cc(-c4cccc(C(=O)NCC#N)c4)no3)cc2)CC1,–
< 10 µM,C[C@H](C#N)NC(=O)c1cccc(-c2cc(-c3ccc(N4CCN(C)CC4)cc3)on2)c1,–
< 10 µM,C[C@@H](C#N)NC(=O)c1cccc(-c2cc(-c3ccc(N4CCN(C)CC4)cc3)on2)c1,–
